Legend:
[1] = parameters: species or system Korean healthy males; conditions: in vivo
Procedure: Drug exposure as AUC was studied among Korean healthy males aged between 20 and 50 years in two clinical studies: (1) a randomized, open-label, multiple-dose, cross-over study of 36 subjects divided into 6 cohorts and treated over 3 periods (subjects were administered either 1 tablet of 40 mg olmesartan medoxomil, 1 tablet of 20 mg rosuvastatin calcium, or a 1 tablet each of both agents (fixed dosage composition, single dose form) orally every 24 hours for 7 days, with an 8-day washout period separating the individual treatment courses) and (2) a randomized, open-label, single-dose, cross-over study of 58 subjects divided into 2 cohorts and treated over 2 periods (Son H, Roh H, Lee D, Chang H, Kim J, Yun C, et al. Pharmacokinetics of rosuvastatin/olmesartan fixed-dose combination: a single-dose, randomized, open-label, 2-period crossover study in healthy Korean subjects. Clin Ther 2013; 35:915-22) (one tablet of ST-101, also known as olmesartan/rosuvastatin FDC, tablet of 40 mg olmesartan medoxomil/20 mg rosuvastatin calcium was administered once orally as the test drug, or 1 tablet each of 40 mg olmesartan medoxomil and 20 mg rosuvastatin calcium was co-administered once orally as the comparator; eligible subjects were randomly assigned to 2 groups (test arm vs comparator arm) in a 1:1 ratio; each subject received a single dose of the FDC or the comparator orally in a fasted state, with a 7-day washout period between the administrations.
A total of 34 volunteers in study 1 and 54 volunteers in study 2 were evaluated for olmesartan pharmacokinetic (PK) analysis. For PK analyses, blood samples were collected at 0 (pre-dose), 0.5, 2, 2.5, 3, 4, 5, 6, 7, 8, 10, 12, 16, 24, 48 hour after dosing of olmesartan either as FDC or as single agent.
FIG. 1 compares individual values of olmesartan AUC when dosed as either olmesartan single agent (OM) or olmesartan/rosuvastatin (OM/RC) fixed dose composition (FDC). […] The coefficient of variations were 29.95% and 24.42% for olmesartan single agent and OM/RC FDC, respectively. The tabulated summary of the data including Gaussian tests are shown below in Table 1.
FIG. 6 illustrates the linear correlation between the first and second pharmacokinetic determinations (AUC) for olmesartan. The linear regression is described by the following equation: Y=0.9782*X. The p value of significant deviation from 0 is less than 0.0001.

[2] = tested on: Korean subjects with hypertension associated with dyslipidemia; test: Phase 3 clinical study, variability of SBP and DBP reduction; assay type: in vivo, human (Korean subjects); conditions: once daily up to 8 weeks; olmesartan medoxomil 40 mg
Procedure: Hypertension therapy effectiveness was evaluated by evaluating the variability of systolic blood pressure (SBP) and diastolic blood pressure (DBP) reduction following dosing with olmesartan single agent (OM) or a fixed dosage composition comprising olmesartan and rosuvastatin (OM/RC FDC). […] The study was a multi-site, randomized, double-blind, placebo-controlled, factorial, 4 arm, 8 week Phase 3 clinical study of Korean subjects with hypertension associated with dyslipidemia aged between 20 and 80 years. Following a 4-week therapeutic lifestyle-change period that included a washout period, eligible patients were randomized in a 2:1:1:1 ratio to receive either OM/RC FDC, olmesartan medoxomil 40 mg, rosuvastatin calcium 20 mg, or placebo, once daily, for up to 8 weeks. A total of 183 subjects were randomized (72 subjects in OM/RC FDC, 39 subjects in olmesartan medoxomil 40 mg, 38 subjects in rosuvastatin calcium 20 mg, and 34 subjects in placebo). Among the 183 randomized subjects, 181 subjects took the investigational drug (ST-101/OM/RC FDC), 162 subjects completed the study, and 21 of […] subjects were discontinued from the study. The SBP and DBP reduction was highly variable. FIG. 2 compares the variability of systolic blood pressure (SBP) reduction after dosing with olmesartan single agent (olmesartan) or olmesartan/rosuvastatin fixed dose combination (OM/RC FDC, ST-101). […]

[3] = tested on: patients with hypertension; test: Dose response of blood pressure reduction, analysis of 21 published clinical studies; assay type: in vivo, human; conditions: olmesartan medoxomil 5 to 80 mg monotherapy, 21 clinical studies
Procedure: PubMed database was searched to identify relevant scientific and review articles from June 2001 to June 2015 using the search terms olmesartan efficacy, response, effect/clinical trial. Reference lists of included articles were reviewed to locate additional references of interest. PD studies with olmesartan medoxomil dose range from 5 to 80 mg monotherapy were selected. PD response and demographic data from a total of 10,770 patients with hypertension in 21 clinical studies were included in the analysis (Oparil S, Williams D, Chrysant S G, Marbury T C, Neutel J. (2001). Comparative efficacy of olmesartan, losartan, valsartan, and irbesartan in the control of essential hypertension. J Clin Hypertens (Greenwich) 2001; 3(5):283-318; Püchler K, Laeis P, Stumpe K O. Blood pressure response, but not adverse event incidence, correlates with dose of angiotensin II antagonist. J Hypertens Suppl 2001 June; 19(1):S41-8; Neutel J M, Elliott W J, Izzo J L, Chen C L, Masonson H N. Antihypertensive efficacy of olmesartan medoxomil, a new angiotensin II receptor antagonist, as assessed by ambulatory blood pressure measurements. […] J Hum Hypertens 2002; 16(Suppl 2):S24-8; Brunner H R, Stumpe K O, Januszewicz A. Antihypertensive efficacy of olmesartan medoxomil and candesartan cilexetil assessed by 24-hour ambulatory blood pressure monitoring in patients with essential hypertension. […]

[4] = parameters: species or system healthy subjects (Asian and non-Asian); conditions: in vivo
Source text: PubMed database was searched to identify relevant scientific and review articles from May 2001 to June 2015 using the search term olmesartan PK. Reference lists of included articles were reviewed to locate additional references of interest. PK studies with single dose AUC of olmesartan medoxomil in healthy subjects were selected. Olmesartan medoxomil AUC from co-administration of olmesartan medoxomil with other drugs or FDC containing olmesartan medoxomil were also included if there was no known drug-drug interaction (DDI). The pharmacokinetic datasets for olmesartan were obtained from published clinical studies across Asian and non-Asian subjects with a dose range from 10 to 160 mg. More than 80% of the studies reported AUC in arithmetic mean. […] PK and demographic data from a total of 895 healthy subjects from 13 clinical studies were included in the final analysis Schwocho L R and Masonson H N. Pharmacokinetics of CS866, a new angiotensin II receptor block, in healthy subjects. J Clin Pharmacol 2001; 41:515-27; von Bergmann K, Laeis P, Pilchler K, Sudhop T, Schwocho L R, Gonzalez L. Olmesartan medoxomil: influence of age, renal and hepatic function on the PK of olmesartan medoxomil. […]

CCCc1nc(C(C)(C)O)c(C(=O)OCc2oc(=O)oc2C)n1Cc1ccc(-c2ccccc2-c2nnn[nH]2)cc1 [OM Single Agent, olmesartan medoxomil]
slope of linear regression between first and second AUC determinations (Y=slope*X) [1]: 0.9782
coefficient of variation of olmesartan AUC ([1]; po, 40 mg): 29.95%
olmesartan AUC, 25% Percentile ([1]; po, 40 mg): 6317
olmesartan AUC, 75% Percentile ([1]; po, 40 mg): 8916
olmesartan AUC, Maximum ([1]; po, 40 mg): 17026
olmesartan AUC, Mean ([1]; po, 40 mg): 7908
olmesartan AUC, Median ([1]; po, 40 mg): 7450 ng·h/mL
olmesartan AUC, Minimum ([1]; po, 40 mg): 3899
coefficient of variation for DBP reduction [2]: 79.25%
coefficient of variation for SBP reduction [2]: 78.24%
relationship between DBP reduction and dose (regression analysis) [3]: very shallow insignificant relationship
correlation between SBP reduction and dose (regression analysis) ([3]; p=0.04): only weak correlation
AUC among Asian subjects versus non-Asian subjects [4]: comparable to AUC in non-Asian subjects at the same dose level
dependence of AUC on dose [4]: linear dose-dependent increase in AUC from 10 to 160 mg

Source: patent US20160199354A1, “METHODS FOR OLMESARTAN DOSING BY AUC” (Autotelic LLC, priority 2015, published 2016)
